In ChEMBL document CHEMBL3879915, “Methods of inhibiting PRMT5” (2014):

Columns and labels:
PRMT5/MEP50 complex = PRMT5/MEP50 complex (Homo sapiens, UniProt O14744); assay: Inhibition of recombinant human fetal brain FLAG-tagged PRMT5/full length human testis 6His-tagged MEP50 expressed in baculovirus infected insect Sf9 cells using human histone H4 (1 to 15 residues) as substrate preincubated for 30 mins followed by [3H]-SAM addition
[1] = Antiproliferative activity against human Z138 cells assessed as inhibition of cell viability after 5 days by Cell-Titer Glo assay; assay type: functional, cell-based; conditions: Z-138, 120 h
[2] = target: Protein arginine N-methyltransferase 5 (Homo sapiens, UniProt O14744); assay: Inhibition of PRMT5 in human Z138 cells assessed as decrease in di-methyl arginine levels after 96 hrs by Western blot method; assay type: cell-based
Protein arginine N-methyltransferase 5, sequence (O14744 whole entry): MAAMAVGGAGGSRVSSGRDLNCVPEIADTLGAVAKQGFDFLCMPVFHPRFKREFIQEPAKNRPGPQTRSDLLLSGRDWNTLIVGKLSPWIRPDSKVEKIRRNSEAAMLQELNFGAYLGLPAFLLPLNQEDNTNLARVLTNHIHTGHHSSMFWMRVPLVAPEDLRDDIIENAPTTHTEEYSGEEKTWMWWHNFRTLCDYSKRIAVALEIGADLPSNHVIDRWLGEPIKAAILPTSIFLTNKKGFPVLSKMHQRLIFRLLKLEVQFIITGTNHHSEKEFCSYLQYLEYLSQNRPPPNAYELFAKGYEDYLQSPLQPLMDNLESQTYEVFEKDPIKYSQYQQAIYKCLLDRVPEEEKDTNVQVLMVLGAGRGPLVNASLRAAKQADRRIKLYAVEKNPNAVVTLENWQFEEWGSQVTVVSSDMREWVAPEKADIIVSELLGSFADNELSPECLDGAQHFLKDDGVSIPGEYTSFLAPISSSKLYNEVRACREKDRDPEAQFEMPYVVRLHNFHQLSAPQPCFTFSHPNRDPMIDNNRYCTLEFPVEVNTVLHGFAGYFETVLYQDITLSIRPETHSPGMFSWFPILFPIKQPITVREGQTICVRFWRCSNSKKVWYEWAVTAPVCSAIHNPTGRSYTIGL

PRMT5/MEP50 complex, sequence (O14744 whole entry, the tested form may be a part): as the sequence (O14744 whole entry) above
PRMT5/MEP50 complex, sequence (Q9BQA1 whole entry, further chain, the tested form may be a part): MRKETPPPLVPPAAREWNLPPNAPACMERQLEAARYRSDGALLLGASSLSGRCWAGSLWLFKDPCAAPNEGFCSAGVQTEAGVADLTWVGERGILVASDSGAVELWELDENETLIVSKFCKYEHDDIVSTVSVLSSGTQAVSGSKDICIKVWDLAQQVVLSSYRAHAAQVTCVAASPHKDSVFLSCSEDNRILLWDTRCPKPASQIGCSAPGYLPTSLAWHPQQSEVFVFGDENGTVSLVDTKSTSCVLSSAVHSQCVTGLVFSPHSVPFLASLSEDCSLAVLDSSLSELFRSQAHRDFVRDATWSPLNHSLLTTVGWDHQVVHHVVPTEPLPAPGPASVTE

Row | SMILES | IC50 (PRMT5/MEP50 complex) | EC50 [1] | EC50 [2]
1 | O=C(COc1ccccc1C1CCNC1)NCC(O)CN1CCc2ccccc2C1 (centres undefined) | 1000 to 10000 nM | > 20000 nM | 1000 to 10000 nM
2 | Cn1ncc2c(OCC(=O)NCC(O)CN3CCc4ccccc4C3)cccc21 (centres undefined) | < 100 nM | 1000 to 10000 nM | < 100 nM
3 | CN1CCC(n2ncc3ccc(OCC(=O)NCC(O)CN4CCc5ccccc5C4)cc32)CC1 (centres undefined) | < 100 nM | > 20000 nM | 101 to 1000 nM
4 | O=C(COc1cccc(C(=O)N2CCOCC2)c1)NCC(O)CN1CCc2ccccc2C1 (centres undefined) | 101 to 1000 nM | 10000 to 50000 nM | 101 to 1000 nM
5 | CC(=O)N1CCc2c(cccc2OCC(=O)NCC(O)CN2CCc3ccccc3C2)C1 (centres undefined) | < 100 nM | 1000 to 10000 nM | < 100 nM
6 | O=C(COc1cccc2c1OCCO2)NCC(O)CN1CCc2ccccc2C1 (centres undefined) | < 100 nM | 1000 to 10000 nM | < 100 nM
7 | O=C(COc1ccccc1OCCN1CCOCC1)NC[C@H](O)CN1CCc2ccccc2C1 | < 100 nM | 10000 to 50000 nM | 101 to 1000 nM
8 | CN(C)S(=O)(=O)c1ccccc1OCC(=O)NCC(O)CN1CCc2ccccc2C1 (centres undefined) | < 100 nM | 101 to 1000 nM | < 100 nM
9 | O=C(COc1ccccc1-c1cc[nH]n1)NC[C@@H](O)CN1CCc2ccccc2C1 | < 100 nM | 1000 to 10000 nM | < 100 nM
10 | CS(=O)(=O)N1CCc2c(cccc2OCC(=O)NCC(O)CN2CCc3ccccc3C2)C1 (centres undefined) | < 100 nM | 1000 to 10000 nM | < 100 nM
11 | O=C(COc1cccc2ncc(=O)[nH]c12)NCC(O)CN1CCc2ccccc2C1 (centres undefined) | 101 to 1000 nM | > 20000 nM | 1000 to 10000 nM
12 | CN1CCOc2cccc(OCC(=O)NCC(O)CN3CCc4ccccc4C3)c21 (centres undefined) | < 100 nM | 101 to 1000 nM | < 100 nM
13 | CC(Oc1ccccc1S(C)(=O)=O)C(=O)NCC(O)CN1CCc2ccccc2C1 (centres undefined) | 101 to 1000 nM | > 20000 nM | 1000 to 10000 nM
14 | O=C(COc1ccc2c(cnn2C2CCNC2)c1)NCC(O)CN1CCc2ccccc2C1 (centres undefined) | < 100 nM | 10000 to 50000 nM | 101 to 1000 nM
15 | O=C(COc1cccc2c1OCC(=O)N2)NCC(O)CN1CCc2ccccc2C1 (centres undefined) | 1000 to 10000 nM | > 20000 nM | 1000 to 10000 nM
16 | O=C(COc1c(CN2CCOCC2)ccc2cccnc12)NC[C@H](O)CN1CCc2ccccc2C1 | < 100 nM | 10000 to 50000 nM | 101 to 1000 nM
17 | C[C@H](Oc1cccc2cccnc12)C(=O)NC[C@H](O)CN1CCc2ccccc2C1 | < 100 nM | 1000 to 10000 nM | 101 to 1000 nM
18 | CN1C(=O)COc2cccc(OCC(=O)NCC(O)CN3CCc4ccccc4C3)c21 (centres undefined) | < 100 nM | 10000 to 50000 nM | 101 to 1000 nM
19 | CN1CCc2c(cccc2OCC(=O)NCC(O)CN2CCc3ccccc3C2)C1 (centres undefined) | < 100 nM | 1000 to 10000 nM | 101 to 1000 nM
20 | O=C(COc1cccc2c1CNCC2)NCC(O)CN1CCc2ccccc2C1 (centres undefined) | < 100 nM | 10000 to 50000 nM | 101 to 1000 nM
21 | CS(=O)(=O)N1CCN(c2ccccc2OCC(=O)NCC(O)CN2CCc3ccccc3C2)CC1 (centres undefined) | 101 to 1000 nM | > 20000 nM | 101 to 1000 nM
22 | CC(=O)N1CCN(c2ccccc2OCC(=O)NCC(O)CN2CCc3ccccc3C2)CC1 (centres undefined) | < 100 nM | 10000 to 50000 nM | 101 to 1000 nM
23 | O=C(COc1ccccc1-c1cc[nH]n1)NC[C@H](O)CN1CCc2ccccc2C1 | < 100 nM | > 20000 nM | 101 to 1000 nM
24 | Cn1cc2c(OCC(=O)NCC(O)CN3CCc4ccccc4C3)cccc2n1 (centres undefined) | 101 to 1000 nM | > 20000 nM | 1000 to 10000 nM
25 | O=C(COc1ccccc1S(=O)(=O)N1CCNCC1)NCC(O)CN1CCc2ccccc2C1 (centres undefined) | < 100 nM | 1000 to 10000 nM | < 100 nM
26 | O=C(COc1cccc2c1CCNC2)NCC(O)CN1CCc2ccccc2C1 (centres undefined) | < 100 nM | 1000 to 10000 nM | 101 to 1000 nM
27 | CN(C)CCOc1ccccc1OCC(=O)NC[C@H](O)CN1CCc2ccccc2C1 | < 100 nM | 10000 to 50000 nM | 101 to 1000 nM

Row | SMILES | IC50 (PRMT5/MEP50 complex) | EC50 [1] | EC50 [2]
28 | C[C@@H](Oc1cccc2cccnc12)C(=O)NC[C@H](O)CN1CCc2ccccc2C1 | < 100 nM | 101 to 1000 nM | < 100 nM
29 | COc1ccc2cccc(OCC(=O)NC[C@@H](O)CN3CCc4ccccc4C3)c2n1 | < 100 nM | 1000 to 10000 nM | < 100 nM
30 | CN1CCCC(c2ccccc2OCC(=O)NCC(O)CN2CCc3ccccc3C2)C1 (centres undefined) | < 100 nM | 1000 to 10000 nM | 101 to 1000 nM
31 | O=C(COc1ccccc1S(=O)(=O)N1CCC(O)C1)NCC(O)CN1CCc2ccccc2C1 (centres undefined) | < 100 nM | 101 to 1000 nM | < 100 nM
32 | O=C(COc1ccccc1N1CCOCC1)NC[C@H](O)CN1CCc2ccccc2C1 | < 100 nM | 1000 to 10000 nM | < 100 nM
33 | O=C(COc1ccccc1C1CCNCC1)NCC(O)CN1CCc2ccccc2C1 (centres undefined) | < 100 nM | > 20000 nM | 101 to 1000 nM
34 | CN(C)C(=O)c1ccccc1OCC(=O)NCC(O)CN1CCc2ccccc2C1 (centres undefined) | 101 to 1000 nM | 10000 to 50000 nM | 101 to 1000 nM
35 | O=C(COc1ccccc1S(=O)(=O)N1CCCC1)NCC(O)CN1CCc2ccccc2C1 (centres undefined) | < 100 nM | 101 to 1000 nM | < 100 nM
36 | CN1CCc2cccc(OCC(=O)NCC(O)CN3CCc4ccccc4C3)c2C1 (centres undefined) | 101 to 1000 nM | > 20000 nM | 1000 to 10000 nM
37 | CNS(=O)(=O)c1ccccc1OCC(=O)NCC(O)CN1CCc2ccccc2C1 (centres undefined) | < 100 nM | 1000 to 10000 nM | 101 to 1000 nM
38 | CN1CCN(c2ccccc2OCC(=O)NC[C@H](O)CN2CCc3ccccc3C2)CC1 | < 100 nM | 1000 to 10000 nM | 101 to 1000 nM
39 | O=C(COc1cccc(CN2CCOCC2)c1)NCC(O)CN1CCc2ccccc2C1 (centres undefined) | < 100 nM | 1000 to 10000 nM | < 100 nM
40 | CN(C)c1ccc2cccc(OCC(=O)NC[C@H](O)CN3CCc4ccccc4C3)c2n1 | 101 to 1000 nM | > 20000 nM | 1000 to 10000 nM
41 | O=C(COc1ccccc1C1CCCNC1)NCC(O)CN1CCc2ccccc2C1 (centres undefined) | 101 to 1000 nM | 1000 to 10000 nM | 101 to 1000 nM
42 | O=C(COc1cccc(NC2CCOCC2)c1)NCC(O)CN1CCc2ccccc2C1 (centres undefined) | < 100 nM | 1000 to 10000 nM | < 100 nM
43 | CN(C)c1ncccc1OCC(=O)NCC(O)CN1CCc2ccccc2C1 (centres undefined) | 101 to 1000 nM | > 20000 nM | 1000 to 10000 nM
44 | COc1ccc2cccc(OCC(=O)NC[C@H](O)CN3CCc4ccccc4C3)c2n1 | 101 to 1000 nM | 1000 to 10000 nM | 101 to 1000 nM
45 | CC(=O)N1CCN(S(=O)(=O)c2ccccc2OCC(=O)NCC(O)CN2CCc3ccccc3C2)CC1 (centres undefined) | 101 to 1000 nM | > 20000 nM | 1000 to 10000 nM
46 | CN1CCC(n2ncc3cc(OCC(=O)NCC(O)CN4CCc5ccccc5C4)ccc32)C1 (centres undefined) | < 100 nM | 10000 to 50000 nM | 101 to 1000 nM
47 | CNC(=O)c1ccccc1OCC(=O)NCC(O)CN1CCc2ccccc2C1 (centres undefined) | 101 to 1000 nM | > 20000 nM | 101 to 1000 nM
48 | C[C@@H](Oc1cccc2cccnc12)C(=O)NC[C@@H](O)CN1CCc2ccccc2C1 | < 100 nM | 1000 to 10000 nM | 101 to 1000 nM
49 | CN1CCN(S(=O)(=O)c2ccccc2OCC(=O)NCC(O)CN2CCc3ccccc3C2)CC1 (centres undefined) | < 100 nM | 10000 to 50000 nM | 101 to 1000 nM
50 | O=C(COc1ccc2cnn(C3CCNCC3)c2c1)NCC(O)CN1CCc2ccccc2C1 (centres undefined) | < 100 nM | > 20000 nM | 101 to 1000 nM
51 | CN(C)c1ccc2cccc(OCC(=O)NC[C@@H](O)CN3CCc4ccccc4C3)c2n1 | < 100 nM | 1000 to 10000 nM | 101 to 1000 nM
52 | O=C(COc1ccccc1N1CCNCC1)NCC(O)CN1CCc2ccccc2C1 (centres undefined) | < 100 nM | 1000 to 10000 nM | 101 to 1000 nM
53 | O=C(COc1cccc2nccnc12)NCC(O)CN1CCc2ccccc2C1 (centres undefined) | < 100 nM | 1000 to 10000 nM | < 100 nM
